Measured values reported in paper PMC9331678 (Molecules, 2022).

Columns and labels:
[1] = 24 h therapeutic monitoring and noncompartmental pharmacokinetics in chronic lymphocytic leukemia patients receiving IBR; conditions: plasma; for concentration at 24 h: 24 h postdose; for k el / half-life / MRT last / MRT / Cmax / Tmax / AUCPEO AUC %Extrapolation Obs / AUCPEP AUC %Extrapolation Pred / AUMCIFO AUMC Infinity Obs / AUMCIFP AUMC Infinity Pred / AUMCLST AUMC to Last Nonzero Conc / AUMCPEO AUMC %Extrapolation Obs / AUMCPEP AUMC % Extrapolation Pred / TMAX Time of CMAX: steady state
Experimental: In order to provide a proof of concept, IBR and DIB were assayed in the plasma samples of three patients treated with IBR. […] The criteria for inclusion were (1) age of ≥18 years, (2) treatment ongoing with IBR for more than 10 days, and (3) no concurrent administration of medications undergoing CYP3A4 metabolism. The subjects gave their written informed consent. Each participant took either two or three 140 mg Imbruvica capsules, as per the therapeutic provision, in the presence of the recruiting clinician.
Blood samples were centrifuged at 3000 rpm for 10 min in a Hettich Universal 320R centrifuge (Auro-Science, Budapest, Hungary) at 10 °C. Plasma was separated and frozen at −70 °C until analysis was done within 2 weeks.

[2] = Stability in plasma at −70 °C; assay type: in vitro ADME
[3] = population modeling study; cited from earlier work
[4] = human, oral, 420 mg, Patient 1, 420 mg IBR per day
[5] = human, oral, 420 mg, Patient 2, 420 mg IBR per day

## Nc1ncnc2c1c(-c1ccc(Oc3ccccc3)cc1)nn2[C@@H]1CCCN(C(=O)C(O)CO)C1 (stereo partly drawn) [Dihydrodiol Ibrutinib, 1-[(3R)-3-[4-amino-3-(4-phenoxyphenyl)pyrazolo[3,4-d]pyrimidin-1-yl]piperidin-1-yl]-2,3-dihydroxypropan-1-one]
[1]; human, oral, 420 mg, Conc., subj=1 (420 mg IBR per day)
  concentration at 24 h: 34.6 nM
[1]; human, oral, 420 mg, Conc., subj=2 (420 mg IBR per day), 0.5 h postdose
  concentration at 0.5 h: 71.5 nM
[1]; human, oral, 420 mg, Conc., subj=2 (420 mg IBR per day), 1 h postdose
  concentration at 1 h: 254 nM
[1]; human, oral, 420 mg, Conc., subj=2 (420 mg IBR per day), 2 h postdose
  concentration at 2 h: 227 nM
[1]; human, oral, 420 mg, LAMZ Lambda z, subj=1 (420 mg IBR per day)
  k el: 1.9e-05 s⁻¹
[1]; human, oral, 420 mg, LAMZ Lambda z, subj=2 (420 mg IBR per day)
  k el: 3.6e-05 s⁻¹
[1]; human, oral, 420 mg, LAMZHL Half-Life Lambda z, subj=1 (420 mg IBR per day)
  half-life: 10.1 h
[1]; human, oral, 420 mg, LAMZHL Half-Life Lambda z, subj=2 (420 mg IBR per day)
  half-life: 5.35 h
[1]; human, oral, 420 mg, MRT0–24, Patient 1, 420 mg IBR per day
  MRT last: 7.07 h
[1]; human, oral, 420 mg, MRT0–24, Patient 2, 420 mg IBR per day
  MRT last: 4.6 h
[1]; human, oral, 420 mg, MRTEVIFO MRT Extravasc Infinity Obs, subj=1 (420 mg IBR per day)
  MRT: 12.7 h
[1]; human, oral, 420 mg, MRTEVIFO MRT Extravasc Infinity Obs, subj=2 (420 mg IBR per day)
  MRT: 5.65 h
[1]; human, oral, 420 mg, MRTEVIFP MRT Extravasc Infinity Pred, subj=1 (420 mg IBR per day)
  MRT: 12.9 h
[1]; human, oral, 420 mg, MRTEVIFP MRT Extravasc Infinity Pred, subj=2 (420 mg IBR per day)
  MRT: 5.63 h
[1]; human, oral, 420 mg, MRTEVLST MRT Extravasc to Last Nonzero Conc, subj=1 (420 mg IBR per day)
  MRT: 7.07 h
[1]; human, oral, 420 mg, MRTEVLST MRT Extravasc to Last Nonzero Conc, subj=2 (420 mg IBR per day)
  MRT: 4.6 h
[1]; [4]
  Cmax: 185 nM
  Tmax: 2 h
[1]; [5]
  Cmax: 254 nM
  Tmax: 1 h
[1]; human, oral, 420 mg, ke, Patient 1, 420 mg IBR per day
  k el: 1.92e-05 s⁻¹
[1]; human, oral, 420 mg, ke, Patient 2, 420 mg IBR per day
  k el: 3.61e-05 s⁻¹
[1]; human, oral, 420 mg, t1/2, Patient 1, 420 mg IBR per day
  half-life: 10.1 h
[1]; human, oral, 420 mg, t1/2, Patient 2, 420 mg IBR per day
  half-life: 5.35 h
[1]; human, oral, 420 mg/day, Conc., subj=2 (420 mg IBR per day), 4 h postdose
  concentration at 4 h: 172 nM
[1]; human, oral, 420 mg/day, Conc., subj=2 (420 mg IBR per day), 23 h postdose
  concentration at 23 h: 14.6 nM
[1]; human, oral, 420 mg/day, Conc., subj=2 (420 mg IBR per day)
  concentration at 24 h: 13.2 nM
[1]; subj=1 (420 mg IBR per day)
  AUCPEO AUC %Extrapolation Obs: 17.7444%
  AUCPEP AUC %Extrapolation Pred: 18.5268%
  AUMCIFO AUMC Infinity Obs: 36155.1204 h2*nmol/L
  AUMCIFP AUMC Infinity Pred: 37213.6967 h2*nmol/L
  AUMCLST AUMC to Last Nonzero Conc: 16593.9650 h2*nmol/L
  AUMCPEO AUMC %Extrapolation Obs: 54.1034%
  AUMCPEP AUMC % Extrapolation Pred: 55.4090%
  TMAX Time of CMAX: 2.0000 h
[1]; subj=2 (420 mg IBR per day)
  AUCPEO AUC %Extrapolation Obs: 3.8711%
  AUCPEP AUC %Extrapolation Pred: 3.8177%
  AUMCIFO AUMC Infinity Obs: 14854.1469 h2*nmol/L
  AUMCIFP AUMC Infinity Pred: 14807.8422 h2*nmol/L
  AUMCLST AUMC to Last Nonzero Conc: 11625.7539 h2*nmol/L
  AUMCPEO AUMC %Extrapolation Obs: 21.7340%
  AUMCPEP AUMC % Extrapolation Pred: 21.4892%
  TMAX Time of CMAX: 1.0000 h
[1]; subj=3 (280 mg IBR per day)
  AUCPEO AUC %Extrapolation Obs: 4.3920%
  AUCPEP AUC %Extrapolation Pred: 4.2856%
  AUMCIFO AUMC Infinity Obs: 10834.3795 h2*nmol/L
  AUMCIFP AUMC Infinity Pred: 10766.9678 h2*nmol/L
  AUMCLST AUMC to Last Nonzero Conc: 8171.9228 h2*nmol/L
  AUMCPEO AUMC %Extrapolation Obs: 24.5741%
  AUMCPEP AUMC % Extrapolation Pred: 24.1019%
  TMAX Time of CMAX: 2.0000 h
[1]; three chronic lymphocyte leukemia patients
  time after drug intake at which maximum concentrations were attained: ≤ 2 h
[2]
  stability in plasma: 3 month
[3]
  interindividual variability in the clearance: 51%
  intraindividual variability in the clearance: 26%
